Data: patent publication US6824770B1, “Adenovirus gene expression system” (Cornell Research Foundation, Inc., priority 1993, dated 2004)
Where two headings read alike, the source gives them in different places.

How the values were obtained:
TRH-R [1] = biological target: T1, TRH-R (Mus musculus, UniProt P21761); assay type: cell-based
T1 construct: expressed in transfected cells; host or cells: Infected with AdCMVmTRHR or transfected with pAdCMVmTRHR: HeLa, GHY, AtT-20, C6, CV1, COS-1 and KB cells

mouse TRH-R = biological target: T2, mouse TRH-R (Mus musculus, UniProt P21761); assay: [3H]methylTRH binding to intact AdCMVmTRHR-infected cells; conditions: TRH-Rs expressed on cells after infection with AdCMVmTRHR; data not shown; read-out: dissociation constant for methylTRH binding
T2 construct: expressed in transfected cells; host or cells: Infected with AdCMVmTRHR or transfected with pAdCMVmTRHR: HeLa, GHY, AtT-20, C6, CV1, COS-1 and KB cells
T2 sequence (P21761 1-393): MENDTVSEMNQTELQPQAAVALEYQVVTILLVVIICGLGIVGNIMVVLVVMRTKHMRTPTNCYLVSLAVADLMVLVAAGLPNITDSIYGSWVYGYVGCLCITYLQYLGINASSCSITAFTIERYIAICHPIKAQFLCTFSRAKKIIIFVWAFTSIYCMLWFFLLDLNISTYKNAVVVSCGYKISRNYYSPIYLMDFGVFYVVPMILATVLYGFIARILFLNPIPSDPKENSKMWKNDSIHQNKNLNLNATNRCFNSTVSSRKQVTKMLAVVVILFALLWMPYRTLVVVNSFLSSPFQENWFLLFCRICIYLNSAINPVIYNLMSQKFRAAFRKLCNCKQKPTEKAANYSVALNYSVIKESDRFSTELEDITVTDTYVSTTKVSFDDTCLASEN
Method: (§1) Cells were seeded in wells (3.8 cm^2) pretreated with poly-L-lysine and were incubated in medium supplemented with serum in a humidified atmosphere of 5% CO2. After a minimum of 4 hours, the medium was aspirated and replaced with 0.3 ml of medium without serum, AdCMVmTRHR (300 particles/cell) was added and the cells were incubated at 37° C. After 1 hour, 0.7 to 1.0 ml medium containing serum was added and the incubation continued for 3 to 72 hours. Infection with AdCMVmTRHR was performed in an identical manner for all cell types except that the incubation mediums were different. The mediums were: Dulbecco's modified Eagle's medium supplemented with 5% Nu-Serum for human cervical cancer HeLa cells, monkey kidney Cos-1 and CV-1 cells, and rat glioma C6 cells; Ham's F-10 medium with 15% horse serum and 2.5% fetal bovine serum for rat pituitary tumor GHY cells; Delbecco's modified Eagle's medium with 10% Nu-Serum for mouse pituitary tumor AtT-20 cells; and modified Eagle's medium with 10% fetal bovine serum for human epidermoid KB cells. None of these cell lines express TRH-Rs. Cells were studied 16 to 24 hours after infection with 300 AdCMVmTRHR particles per cell which yielded maximal TRH-R expression. […]

TRH-R [2] = biological target: T1, TRH-R; assay: Internalization of TRH-Rs (acid-resistant specifically bound [3H]methylTRH); assay type: cell-based; conditions: methylTRH-bound receptors
Method: Cells were seeded in wells (3.8 cm^2) pretreated with poly-L-lysine and were incubated in medium supplemented with serum in a humidified atmosphere of 5% CO2. After a minimum of 4 hours, the medium was aspirated and replaced with 0.3 ml of medium without serum, AdCMVmTRHR (300 particles/cell) was added and the cells were incubated at 37° C. After 1 hour, 0.7 to 1.0 ml medium containing serum was added and the incubation continued for 3 to 72 hours. Infection with AdCMVmTRHR was performed in an identical manner for all cell types except that the incubation mediums were different. The mediums were: Dulbecco's modified Eagle's medium supplemented with 5% Nu-Serum for human cervical cancer HeLa cells, monkey kidney Cos-1 and CV-1 cells, and rat glioma C6 cells; Ham's F-10 medium with 15% horse serum and 2.5% fetal bovine serum for rat pituitary tumor GHY cells; Delbecco's modified Eagle's medium with 10% Nu-Serum for mouse pituitary tumor AtT-20 cells; and modified Eagle's medium with 10% fetal bovine serum for human epidermoid KB cells. None of these cell lines express TRH-Rs. Cells were studied 16 to 24 hours after infection with 300 AdCMVmTRHR particles per cell which yielded maximal TRH-R expression.
Internalization was measured as specifically bound [^3H]methylTRH that was resistant to acid wash (Hinkle et al., 1982, J.Biol. Chem., vol. 257, pp. 5462-5470; and Nussenzveig et al., 1993, J.Biol. Chem., vol. 268, pp. 2389-2392, which disclosures are hereby incorporated by reference). Specific acid resistant binding was calculated by subtracting the nonspecifically bound from the [^3H]methylTRH remaining after acid/salt elution.

TRH-R [3] = biological target: T1, TRH-R; assay: methylTRH stimulation of [3H]IP formation (TRH response); assay type: cell-based; conditions: uninfected HeLa, GHY, AtT, C6, CV1 and COS-1 cells
Method: as §1, with “TRH-Rs.” for “TRH-Rs. Cells were studied 16 to 24 hours after infection with 300 AdCMVmTRHR particles per cell which yielded maximal TRH-R expression.”
Infected or transfected cells were labelled for 24 hours with [^3H]myo-inositol, stimulated with TRH or methylTRH in a balanced salt solution containing 10 mM LiCl and [^3H]IPs were measured as described by Imai et al., 1987, Methods. […]

NC(=O)[C@@H]1CCCN1C(=O)[C@H](Cc1cnc[nH]1)NC(=O)[C@@H]1CCC(=O)N1 [TRH, thyrotropin-releasing hormone]
TRH-induced desensitization: decrease of rate of IP formation compared to control (TRH-R [1]; AdCMVmTRHR-infected AtT-20 cells, 60 minutes 1 μM TRH): 41±4.7%
TRH-induced desensitization (TRH-R [1]; AdCMVmTRHR-infected COS-1 cells, 60 minutes 1 μM TRH): did not desensitize
TRH-induced desensitization: decrease of the response to TRH (TRH-R [1]; AdCMVmTRHR-infected GHY cells, after 60 minutes of stimulation by 1 μM TRH): 49±5.2%
TRH-induced desensitization (TRH-R [1]; AdCMVmTRHR-infected KB cells, 60 minutes 1 μM TRH): 0±10%

Cn1cnc(C[C@H](NC(=O)[C@@H]2CCC(=O)N2)C(=O)N2CCC[C@H]2C(N)=O)c1 [methylTRH]
Kd (mouse TRH-R): 1.09 ± 0.26 nM
TRH-Rs internalized after 60 minutes (TRH-R [2]; AdCMVmTRHR-infected COS-1 cells (printed COA-1)): 62±2.1%
TRH-Rs internalized after 60 minutes (TRH-R [2]; AdCMVmTRHR-infected GHY cells): 64±7.0%
TRH-Rs internalized after 60 minutes (TRH-R [2]; AdCMVmTRHR-infected KB cells): 71±2.6%
response to methylTRH (IP formation) in uninfected cells (TRH-R [3]): did not respond

CCCCCCCCCCCCCC(=O)O[C@@H]1[C@@H](C)[C@@]2(O)[C@@H](C=C(CO)C[C@]3(O)C(=O)C(C)=C[C@@H]23)[C@@H]2C(C)(C)[C@]12OC(C)=O [PMA]
PMA-induced inhibition of the TRH response (TRH-R [1]; AdCMVmTRHR-infected AtT-20 cells, 0.1 μM PMA 60 minutes prior to TRH): 37±4.0%
PMA-induced inhibition of the TRH response (TRH-R [1]; AdCMVmTRHR-infected COS-1 cells, 0.1 μM PMA 60 minutes prior to TRH): 37±8.0%
PMA-induced inhibition of the TRH response (TRH-R [1]; AdCMVmTRHR-infected GHY cells, 0.1 μM PMA added 60 minutes prior to TRH): 25±4.6%
PMA-induced inhibition of the TRH response (TRH-R [1]; AdCMVmTRHR-infected KB cells, 0.1 μM PMA 60 minutes prior to TRH): 0±10%
